The nature of data set [1]: Evaluation of solubility of compounds in liquid crystal material (maximum dissolution amount, visual observation). It is filed as physicochemical. The following applies: in liquid crystal material (cyanobiphenyl/terphenyl mixture), room temperature, 0.5% steps, tested up to about 4.5% by mass. The protocol:
(§1) When a uniform composition with no insoluble matter was obtained, a procedure of further adding 0.003 parts of the compound represented by No. 2, stirring the mixture at room temperature for 1 hour, and then visually observing the appearance of the composition was repeated until a dissolution amount (see the following) reached about 4.5% by mass. The solubility of the compound represented by No. 2 in the liquid crystal material was evaluated by the maximum addition amount at which a uniform composition with no insoluble matter was obtained.
When a uniform composition with no insoluble matter was obtained even after 0.024 parts of the compound were added, the maximum dissolution amount was provisionally determined to be “about 4.5% by mass”.

Data set [2] in a line: Evaluation of contrast of compositions at maximum dissolution amount encapsulated in a cell (C=Ky/Kz at λmax). Particulars: absorption peak wavelength of the composition in the cell. An excerpt:
The compositions obtained in Examples 3 and 4 and Comparative Examples 6 to 10 were each encapsulated in an element made of two upper and lower glass substrates each having a transparent electrode with an inter-substrate gap of 15 μm, in which the surface of each glass substrate in contact with a liquid crystal was rubbed with a polyamide-based resin and was subjected to a homogeneous orientation treatment. When no voltage was applied in the element subjected to the orientation treatment, the liquid crystal was in a homogeneously oriented state, and dye molecules were also in the same orientation according to the host liquid crystal.
Each of the uniform compositions with no insoluble matter, which were obtained in the above-mentioned “Evaluation of Solubilities of Compounds of Examples according to Present Invention and Compounds of Comparative Examples in Liquid Crystal Material” and which were each made in the maximum dissolution amount, was encapsulated in a cell. In the cell in which each of the uniform compositions was encapsulated, a transmittance (Ky) of linearly polarized light parallel to the orientation direction and a transmittance (Kz) of polarized light perpendicular to the orientation direction were measured, and a contrast (C) at its absorption peak wavelength (λmax) was determined from the following expression. C=Ky/Kz

Data set [3] is described as follows: Evaluation of solubility of compounds in liquid crystal material, photocurable compound, and photopolymerization initiator. It is filed as physicochemical. The following applies: room temperature, 0.5% steps, tested up to about 3.5% by mass. As for the experimental part:
as §1, with “0.005” for “0.003”, “3.5%” for “4.5%”, “material, the photocurable compound, and the photopolymerization initiator” for “material”
When a uniform composition with no insoluble matter was obtained even after 0.030 parts of the compound were added, the maximum dissolution amount was provisionally determined to be “about 3.5% by mass”.

With `CCCCCCCCC(CCCCCC)C(=O)Oc1ccc(Sc2cccc3c2C(=O)c2cccc(Sc4ccc(OC(=O)C(CCCCCC)CCCCCCCC)cc4)c2C3=O)cc1` (stereo not drawn) [No.2], the Maximum dissolution amount is listed as 4.5% by mass in data set [1] and 3.5% by mass in data set [3]. Further, the “λmax(nm)” value in data set [2] turned out to be 460 nm.

On to `CC(C)(C)c1ccc(Sc2cccc3c2C(=O)c2cccc(Sc4ccc5ccccc5c4)c2C3=O)cc1` [Formula(A)], for which the Maximum dissolution amount in data set [1] is recorded as 1.0% by mass; in data set [3], 0.5% by mass. The “λmax(nm)” value in data set [2] is recorded as 462 nm.

For `CCCCCC(C)CCC(=O)Oc1ccc(Sc2cccc3c2C(=O)c2cccc(Sc4ccc(OC(=O)CCC(C)CCCCC)cc4)c2C3=O)cc1` (stereo not drawn) [Formula(E)], the Maximum dissolution amount amounted to 2.0% by mass in data set [1] and 1.0% by mass in data set [3]. Also, the “λmax(nm)” value in data set [2] was determined as 460 nm.

Take `CCCCC(CC)C(=O)Oc1ccc(Sc2cccc3c2C(=O)c2cccc(Sc4ccc(OC(=O)C(CC)CCCC)cc4)c2C3=O)cc1` (stereo not drawn) [No.3]: the Maximum dissolution amount in data set [1] and in data set [3] was 3.5% by mass each time. Further, the “λmax(nm)” value in data set [2] is 462 nm.

On to `CC(CC(=O)Oc1ccc(Sc2cccc3c2C(=O)c2cccc(Sc4ccc(OC(=O)CC(C)CC(C)(C)C)cc4)c2C3=O)cc1)CC(C)(C)C` (stereo not drawn) [Formula(D)], for which the Maximum dissolution amount in data set [1] worked out at 2.0% by mass; in data set [3] it was 1.0% by mass. For the same compound, the “λmax(nm)” value in data set [2] was 462 nm.

The values above are taken from US11905417B2, “Anthraquinone compound, liquid crystal composition for dimming including said compound, and dimming element” (Nippon Kayaku Kabushiki Kaisha, priority 2020, dated 2024).
